Source: US20120115852A1, “HETEROCYCLIC COMPOUNDS AS AUTOTAXIN INHIBITORS” (Merck Patent Gesellschaft Mit Beschrankter Haftung, priority 2009, published 2012)

Target: T1, recombinant autotaxin (Homo sapiens, UniProt Q13822)
T1 construct: made in house; host or cells: Hi5 insect cells (baculovirus)
Assay: Autotaxin test (enzyme test), Amplex Red fluorescence with LPC substrate
Type: biochemical
Conditions: autotaxin inhibition (enzyme test); for remaining activity at 10 µM: 10 μM compound, read-out: % Control at 10 μM
Method in brief: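 Activity was inferred from H2O2 made from released choline, detected as Amplex Red/peroxidase fluorescence (485 nm excitation, 612 nm emission, kinetic read). Beforehand, Hi5-expressed autotaxin sat with compound 30 min at 22° C, then hydrolysed 75 μM final LPC for 90 min at 37° C, pH 8 Tris buffer.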

## O=C1Nc2ccc(-c3ccc(Cl)cc3)cc2C(=O)N2CCN(C(=O)C3CCCN3C(=O)c3ccncc3)CC12 (stereo not drawn) [Compound A110, 7-(4-Chlorophenyl)-2-[1-(pyridine-4-carbonyl)-pyrrolidine-2-carbonyl]-1,3,4,11a-tetrahydro-2H,10H-2,4a,10-triazadibenzo[a,d]cycloheptene-5,11-dione]
  remaining activity at 10 µM: 51%
  IC50: > 1000 nM

## O=C1Nc2ccc(-c3ccc(Cl)cc3)cc2C(=O)N2CCN(C(=O)CC3CCCCC3)CC12 (stereo not drawn) [Compound A24, 7-(4-Chlorophenyl)-2-(2-cyclohexylacetyl)-1,3,4,11a-tetrahydro-2H,10H-2,4a,10-triaza-dibenzo[a,d]cycloheptene-5,11-dione]
  remaining activity at 10 µM: 67%
  IC50: > 1000 nM

## CC(C)(C)[C@H](O)C(=O)N1CCN2C(=O)c3cc(-c4ccc(Cl)cc4)ccc3NC(=O)[C@@H]2C1 [Compound A54, (S)-7-(4-Chlorophenyl)-2-((S)-2-hydroxy-3,3-di-methyl-1-oxobutyl)-1,3,4,11a-tetrahydro-2H,10H-2,4a,10-triazadibenzo[a,d]cycloheptene-5,11-dione]
  remaining activity at 10 µM: 84%

## Cn1cc(CCC(=O)N2CCN3C(=O)c4cc(-c5ccc(Cl)cc5)ccc4NC(=O)C3C2)cn1 (stereo not drawn) [Compound A26, 7-(4-Chlorophenyl)-2-[3-(1-methyl-1H-pyrazol-4-yl)-propionyl]-1,3,4,11a-tetrahydro-2H,10H-2,4a,10-triazadibenzo[a,d]cycloheptene-5,11-dione]
  remaining activity at 10 µM: 12%
  IC50: > 1000 nM

## O=C1Nc2ccc(-c3ccc(Cl)cc3)cc2C(=O)N2CCN(C(=O)[C@H](O)c3ccccc3)CC12 (stereo partly drawn) [Compound A43, 7-(4-Chlorophenyl)-2-((R)-2-hydroxy-2-phenylacetyl)-1,3,4,11a-tetrahydro-2H,10H-2,4a,10-triazadibenzo[a,d]cycloheptene-5,11-dione]
  remaining activity at 10 µM: 31%
  IC50: > 1000 nM

## CC(C)(C)CC(=O)N1CCN2C(=O)c3cc(-c4ccc(Cl)cc4)ccc3NC(=O)C2C1 (stereo not drawn) [Compound B26]
  IC50: 100 to 1000 nM

## CC(C)(C)[C@H](N)C(=O)N1CCN2C(=O)c3cc(-c4ccc(Cl)cc4F)ccc3NC(=O)[C@@H]2C1 [Compound A66, (S)-2-((S)-2-Amino-3,3-dimethylbutyryl)-7-(4-chloro-2-fluorophenyl)-1,3,4,11a-tetrahydro-2H,10H-2,4a,10-triazadibenzo[a,d]cycloheptene-5,11-dione]
  remaining activity at 10 µM: 9.5%
  IC50: 100 to 1000 nM

## O=C1Nc2ccc(-c3ccc(Cl)cc3F)cc2C(=O)N2CCN(C(=O)[C@@H]3CCCN3C3CCCNC3)C[C@H]12 (stereo partly drawn) [Compound A123, (R)-7-(4-Chloro-2-fluorophenyl)-2-((S)-1-piperidin-3-ylpyrrolidine-2-carbonyl)-1,3,4,11a-tetrahydro-2H,10H-2,4a,10-triazadibenzo[a,d]cycloheptene-5,11-dione]
  remaining activity at 10 µM: 6%
  IC50: 100 to 1000 nM

## C#Cc1ccc(-c2ccc3c(c2)C(=O)N2CCN(C(=O)CC(C)(C)C)CC2C(=O)N3)cc1 (stereo not drawn) [Compound A140, 2-(3,3-Dimethylbutyryl)-7-(4-ethynylphenyl)-1,3,4,11a-tetrahydro-2H,10H-2,4a,10-triaza-dibenzo[a,d]cycloheptene-5,11-dione]
  remaining activity at 10 µM: -10%
  IC50: > 1000 nM

## CN1CCN(C(=O)CN2C(=O)[C@@H]3CN(C(=O)CC(C)(C)C)CCN3C(=O)c3cc(-c4ccc(Cl)cc4F)ccc32)CC1 [Compound A162]
  remaining activity at 10 µM: 30%
  IC50: > 1000 nM
